From PubChem BioAssay (NCI)
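These data come from cells grown in 96-well plates and exposed to compound for 48 hours at five concentrations. The concentration for 50% growth inhibition is given as GI50. TGI is the concentration that stops growth completely.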

Key:
Experiment in all cases: NCI anticancer screen, dose series, 48 h
A549 NSCLC = system: A549 NSCLC
DU-145 prostate = system: DU-145 prostate
HOP-92 NSCLC = system: HOP-92 NSCLC
K-562 leukemia = system: K-562 leukemia
KM12 colon = system: KM12 colon
M14 melanoma = system: M14 melanoma
NCI-H23 lung = system: NCI-H23 lung
NCI-H522 lung = system: NCI-H522 lung
OVCAR-5 ovarian = system: OVCAR-5 ovarian
U251 CNS = system: U251 CNS

| Compound | TGI (A549 NSCLC) | TGI (DU-145 prostate) | TGI (HOP-92 NSCLC) | TGI (K-562 leukemia) | TGI (KM12 colon) | TGI (M14 melanoma) | TGI (NCI-H23 lung) | TGI (NCI-H522 lung) | TGI (OVCAR-5 ovarian) | TGI (U251 CNS) | GI50 (DU-145 prostate) | GI50 (HOP-92 NSCLC) | GI50 (K-562 leukemia) | GI50 (KM12 colon) | GI50 (NCI-H23 lung) | GI50 (NCI-H522 lung) | GI50 (OVCAR-5 ovarian) | GI50 (U251 CNS) | GI50 (A549 NSCLC) |
| --- | --- | --- | --- | --- | --- | --- | --- | --- | --- | --- | --- | --- | --- | --- | --- | --- | --- | --- | --- |
| N=c1c2c(=S)n(-c3ccccc3)c(=S)n(-c3ccccc3)c2nc(SCCN2CCCC2)n1-c1ccccc1 | 8.5 µM | 3.29 µM | 3.48 µM | 3.62 µM | 11.6 µM | 3.44 µM | 9.2 µM | 3.71 µM | 32.1 µM | 8.36 µM |  |  |  |  |  |  |  |  |  |
| CCN(CC)CCN1C(=O)c2c(c3c4ccccc4[nH]c3c3ccc4ccccc4c23)C1=O |  | 3.06 µM | 2.95 µM | 5.32 µM | 3.22 µM |  | 3.52 µM | 3.54 µM | 3.09 µM | 3.06 µM | 1.65 µM | 1.42 µM | 1.82 µM | 1.74 µM | 1.69 µM | 1.46 µM | 1.64 µM | 1.53 µM |  |
| C=C(NC(=O)C(=C)NC(=O)c1csc(C2=NC3c4csc(n4)C4NC(=O)c5csc(n5)C(C(C)(O)C(C)O)NC(=O)C5CSC(=N5)/C(=C/C)NC(=O)C(C(C)O)NC(=O)c5csc(n5)C3(CC2)NC(=O)C(C)NC(=O)C(=C)NC(=O)C(C)NC(=O)C(C(C)CC)NC2C=Cc3c(C(C)O)cc(nc3C2O)C(=O)OC4C)n1)C(N)=O (configuration not stated) | 58.4 µM |  | > 100 µM |  |  | 3.17 µM | 13.7 µM | 1.15 µM | > 51.4 µM | 3.04 µM |  | 8.07 µM |  |  |  |  |  |  |  |
| CN(C)c1ccc(/C=C(\NC(=O)c2ccccc2)C2=NC(CCC(=O)O)C(=O)O2)cc1 (configuration not stated) | > 50 µM | > 50 µM | > 50 µM | > 50 µM | > 50 µM | > 50 µM | > 50 µM | 49.1 µM | > 50 µM | > 50 µM |  |  |  |  |  |  |  |  |  |
| COc1cc(OC)c2c3c(OC)cc(OC)c4c(=O)c(O)c(C[C@@H](C)O)c(c5c(C[C@@H](C)O)c(O)c(=O)c1c25)c43 | > 100 µM | > 100 µM | 35.4 µM |  | 83.2 µM | 47 µM | 40 µM |  | > 100 µM | 67.9 µM |  |  |  |  |  |  |  |  |  |
| C=CCN(CCNS(=O)(=O)c1ccc(C)cc1)S(=O)(=O)c1ccc(C)cc1 | > 100 µM | > 100 µM | > 100 µM | > 100 µM | > 100 µM | > 100 µM | > 95.5 µM | > 100 µM | > 100 µM | > 100 µM |  |  |  |  |  |  |  |  |  |
| CC(C)=CCc1[nH]c2ccccc2c1C1=C(O)C(=O)C(c2c(CC=C(C)C)[nH]c3ccccc23)=C(O)C1=O | 11.2 µM | 10.9 µM | 4.04 µM | 6.31 µM | 2.82 µM | 15.6 µM | 5.87 µM | 5.58 µM | 8.44 µM | 6.52 µM |  |  |  |  |  |  |  |  |  |
| CC1(C)CCC(C)(C)C1C(=O)NC(O)C(=O)O (configuration not stated) | > 100 µM | > 100 µM |  | > 100 µM |  | > 100 µM |  |  | > 100 µM | > 100 µM |  |  |  |  |  |  |  |  |  |
| CCOC(=O)NC(OC)(C(F)(F)F)C(F)(F)F | > 100 µM | > 100 µM | > 100 µM | > 100 µM |  | > 100 µM | > 100 µM | > 100 µM |  | > 100 µM |  |  |  |  |  |  |  |  |  |
| CC(=O)Nc1c(S(=O)(=O)c2ccccc2)c(C)c(C)n1Cc1ccccc1 | > 100 µM | > 100 µM | > 100 µM | > 100 µM | > 100 µM | > 100 µM | > 100 µM | > 100 µM | > 100 µM | > 100 µM |  |  |  |  |  |  |  |  |  |
| CCOC(=O)c1nc2ccc(C(F)(F)F)cc2nc1Nc1ccc(Cl)c(Cl)c1 | > 100 µM | > 100 µM | > 100 µM | > 100 µM | > 100 µM | > 100 µM | > 100 µM | > 100 µM | > 100 µM |  |  |  |  |  |  |  |  |  |  |
| Cc1ccc(C2=C(C#N)C(N)OC3=C2COc2ccccc23)cc1 (configuration not stated) | > 100 µM | 69.1 µM | > 100 µM | > 100 µM | > 100 µM | > 100 µM | > 100 µM |  |  | 51 µM |  |  |  |  |  |  |  |  |  |
| O=C1CC(c2ccccc2)=Nc2ccccc2N1 | > 100 µM |  | > 100 µM | > 100 µM | > 100 µM | > 100 µM | > 100 µM | > 100 µM | > 100 µM | > 100 µM |  |  |  |  |  |  |  |  |  |
| COC(=O)c1c(O)ccc2[nH]c3c(O)c4ccccc4cc3c12 | > 100 µM | 71 µM | 61.8 µM | > 100 µM | 38.8 µM | 67.4 µM | 64.3 µM | 53.6 µM | > 100 µM | > 100 µM |  |  |  |  |  |  |  |  |  |
| Cc1n[nH]c(=O)n1/N=C\c1ccccc1 | > 100 µM | > 100 µM |  | > 100 µM | > 100 µM |  | > 100 µM | > 100 µM | > 100 µM | > 100 µM |  |  |  |  |  |  |  |  |  |
| CC(C)(C)OC(=O)CN1CCNCCN(CC(=O)OC(C)(C)C)CCNCC1 | > 100 µM | > 100 µM | > 100 µM | > 100 µM | > 100 µM |  |  | > 100 µM | > 100 µM | > 100 µM |  |  |  |  |  |  |  |  |  |
| Cn1cc(-c2ccc3cc(-c4ccc(CC(=O)Nc5cc(C(C)(C)C)on5)cc4)cnc3c2)cn1 | > 100 µM | 10.2 µM | 26 µM | > 100 µM | 11.2 µM |  | 10.5 µM |  | 18.9 µM |  | 1.05 µM | 4.23 µM | 1.85 µM | 0.07 µM | 2.27 µM |  | 4.4 µM |  | 1.72 µM |
| COc1ccc2c3c([nH]c2c1)CCN(CCCC(=O)c1ccc(F)cc1)C3 | 32.1 µM | 33.9 µM |  | 44.9 µM | 34.4 µM | 28.9 µM | 34.8 µM | 42.8 µM | 27.1 µM | 32 µM |  |  |  |  |  |  |  |  |  |
| C=C1C(=O)O[C@@H]2[C@H](O)[C@@H](C)[C@@H]3C=CC(=O)[C@@]3(C)[C@@H](OC(=O)/C(C)=C/C)[C@H]12 | 13.4 µM |  | 1.78 µM | 3.48 µM | 7.21 µM |  | 2.57 µM | 0.258 µM | 8.31 µM | 5.26 µM |  |  |  |  |  |  |  |  |  |
| O=C(c1ccc(Cl)cc1)N(C(=S)N1CCN(c2ccccn2)CC1)C1CCCCC1 | > 100 µM |  | > 100 µM | > 100 µM | > 100 µM | > 100 µM | > 100 µM | > 100 µM | > 100 µM | > 100 µM |  |  |  |  |  |  |  |  |  |
| COc1ccc([C@@H]2CC(=O)N2)cc1 | > 100 µM |  | > 100 µM | > 100 µM | > 100 µM | > 100 µM | > 100 µM | > 100 µM | > 100 µM | > 100 µM |  |  |  |  |  |  |  |  |  |
